In paper PMC9374667 (Communications Biology, 2022):
Values joined by “and” are separate entries in the source; they are usually repeats but may differ in a detail not shown here. Equal entries are not always repeated.

Tests used:
[1] = molecular target: T1, TBK1 (Mus musculus, UniProt Q9WUN2); experiment: TBK1-knockdown 3T3-L1 adipocytes (siRNA; western blotting, immunofluorescence); type: cell-based, Murine; design: host or cells: differentiated 3T3-L1 adipocytes (Lipofectamine 2000); TBK1 (western blotting, Figure 9b) / p-AMPK (western blotting, Figure 9c) / UCP1 (western blotting, Figure 9d): unit not given here; settings: for MitoTracker (immunofluorescence, Figure 9f) / UCP1 (immunofluorescence, Figure 9g): replicates 1-12
T1 sequence (Q9WUN2 1-729): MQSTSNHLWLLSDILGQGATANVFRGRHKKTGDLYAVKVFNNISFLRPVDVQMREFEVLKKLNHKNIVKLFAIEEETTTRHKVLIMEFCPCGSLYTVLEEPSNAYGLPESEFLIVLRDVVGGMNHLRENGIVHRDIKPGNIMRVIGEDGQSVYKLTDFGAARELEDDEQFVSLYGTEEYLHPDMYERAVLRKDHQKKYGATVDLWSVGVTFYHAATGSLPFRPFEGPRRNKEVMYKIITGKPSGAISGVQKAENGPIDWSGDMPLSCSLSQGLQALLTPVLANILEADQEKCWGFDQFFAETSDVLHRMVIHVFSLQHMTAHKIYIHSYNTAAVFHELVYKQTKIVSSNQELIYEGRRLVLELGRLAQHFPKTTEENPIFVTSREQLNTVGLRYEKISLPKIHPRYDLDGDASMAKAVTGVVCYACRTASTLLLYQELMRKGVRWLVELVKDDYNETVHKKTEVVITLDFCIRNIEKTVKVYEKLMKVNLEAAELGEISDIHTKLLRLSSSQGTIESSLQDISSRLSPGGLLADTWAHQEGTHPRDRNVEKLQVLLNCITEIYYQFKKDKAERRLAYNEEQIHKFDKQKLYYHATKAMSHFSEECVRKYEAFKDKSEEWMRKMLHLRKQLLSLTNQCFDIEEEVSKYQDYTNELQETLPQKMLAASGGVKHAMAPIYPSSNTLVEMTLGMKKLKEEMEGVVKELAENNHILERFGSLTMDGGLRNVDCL
Description: Small interference RNA transfection (siRNA) was performed using 4 μM TBK1 siRNA (siTBK1) or 4 μM […]ε) or corresponding NC siRNA (siNC). The 3T3-L1 adipocytes were washed with PBS for 3 times, fixed with 4% paraformaldehyde solution for 30 min, and then washed again for 3 times. […] The cells were then incubated overnight at 4 °C with the appropriate primary antibodies (1:100 dilution). The next day, the 3T3-L1 adipocytes were washed and incubated at room temperature with goat anti-rabbit secondary antibody or goat anti-mouse secondary antibody (1:1000 dilution) for 2 h and washed with PBS for 3 times. The nuclei were stained with DAPI. […] Fluorescence images were taken using a laser confocal microscope (SP8, Leica, Germany). At least four images per section were acquired for quantification, and the mean intensity were evaluated using ImageJ. The adipose tissue or 3T3-L1 adipocytes were homogenized by ultrasound in an ice-cold RIPA lysis buffer containing 1% PMSF and centrifuged at 12,000 × g at 4°C for 15 min to collect the supernatant. The BCA protein assay kit (Beyotime, Shanghai, China) was used to detect the total protein concentration. Proteins (20-30 μg) of the sample were separated by 10% SDS-PAGE gel and transferred onto polyvinylidene difluoride (PVDF) membranes. Then the PVDF membranes were blocked in 5% skim milk powder in TBS containing 1% Tween-20 (TBST) for 2 h at room temperature and washed with TBST for 3 times. […] After washing, the membranes were incubated with horseradish peroxidase-conjugated secondary antibodies (in 5% skim milk powder) for 1 h at room temperature. Finally, the membranes were treated with enhanced chemiluminescence agents (Tanon, Shanghai, China) and the signals were monitored using the Tanon 5200 multi chemiluminescent imaging system (Tanon, Shanghai, China).

[2] = molecular target: T1, TBK1; experiment: TBK1 activity assay in BAT; type: in vivo, mice; design: The adipose tissue was ultrasound-crushed in PBS buffer solution (1:9 w/v) to prepare the tissue homogenate; from tissue; host or cells: epididymal white adipose tissue (eWAT) and brown adipose tissue (BAT) of C57BLKS WT and db/db mice; settings: for the expression of TBK1 in BAT of db/db mice: Figure 6m, individual values
Description: The adipose tissue was ultrasound-crushed in PBS buffer solution (1:9 w/v) to prepare the tissue homogenate. The tissue homogenate was centrifuged at 5000 × g for 10 min, and the supernatant was taken for detection. Briefly, samples or standards were added to the microplates pre-coated with IKKε antibody or TBK1 antibody. Then horseradish peroxidase (HRP) labeled antibody was added and incubated at 37 °C for 60 min. After thorough washing, the 3,3′,5,5′-tetramethylbenzidine (TMB) substrate was used for color development, and the absorbance (OD value) was determined at 450 nm.

For CC(C)Cc1ccc(C(C)C(=O)[O-])cc1.COc1ccc2cc3[n+](cc2c1OC)CCc1cc2c(cc1-3)OCO2.O.O.O.O [BJ, berberine-ibuprofen], the “TBK1 (western blotting, Figure 9b)” value ([1]; 10μM BJ) was 0.1548 and 0.1822 and 0.1679, the “UCP1 (western blotting, Figure 9d)” value ([1]; 10μM BJ) was 0.6444 and 0.6902 and 0.5582 and the “p-AMPK (western blotting, Figure 9c)” value ([1]; 10μM BJ) was 0.3674 and 0.4043 and 0.3553. For the same molecule, the “MitoTracker (immunofluorescence, Figure 9f)” value ([1]; 10μM BJ) was 22.957 and 24.343 and 25.025 and 18.793 and 24.708 and 21.147 and 28.941 and 23.595 and 21.858 and 24.262 and 23.917 and 27.936, the “UCP1 (immunofluorescence, Figure 9g)” value ([1]; 10μM BJ) was 28.366 and 25.764 and 25.784 and 25.906 and 27.454 and 28.774 and 34.011 and 26.939 and 25.523 and 31.625 and 28.718 and 27.261 and the “Expression of p-AMPKα and UCP1” value ([1]; 3T3-L1 adipocytes, BJ alone, 24 h) was “significantly increased the expression of p-AMPKα and UCP1”. For the same molecule, the “Expression levels of p-AMPKα and UCP1” value ([1]; TBK1-knockdown 3T3-L1 adipocytes treated with BJ, vs TBK1-knockdown) was “not significantly changed”, the “TBK1 (western blotting, Figure 9b)” value ([1]; siTBK1+10μM BJ) was 0.1211 and 0.0965 and 0.1123 and the “UCP1 (western blotting, Figure 9d)” value ([1]; siTBK1+10μM BJ) was 0.7411 and 0.669 and 0.5981. For the same molecule, the “p-AMPK (western blotting, Figure 9c)” value ([1]; siTBK1+10μM BJ) was 0.4095 and 0.4234 and 0.498, the “MitoTracker (immunofluorescence, Figure 9f)” value ([1]; siTBK1+10μM BJ) was 25.218 and 30.785 and 30.877 and 30.71 and 22.848 and 22.479 and 31.768 and 31.566 and 27.335 and 20.91 and 29.763 and 33.52 and the “UCP1 (immunofluorescence, Figure 9g)” value ([1]; siTBK1+10μM BJ) was 30.066 and 28.142 and 35.211 and 34.925 and 27.446 and 30.425 and 28.118 and 35.655 and 39.617 and 27.871 and 25.612 and 40.285. For the same molecule, the “the expression of TBK1 in BAT of db/db mice” value ([2]; db/db+BJ 75mg/kg) was 0.366 U/g and 0.397 U/g and 0.402 U/g and 0.336 U/g and 0.384 U/g and 0.344 U/g, the “the expression of TBK1 in BAT of db/db mice” value ([2]; db/db+BJ 150mg/kg) was 0.338 U/g and 0.377 U/g and 0.358 U/g and 0.428 U/g and 0.335 U/g and 0.369 U/g and the “TBK1 activity and expression levels in BAT” value ([2]; db/db mice, both doses of BJ) was “had no effect”.
